Target: NAD(P)H dehydrogenase [quinone] 1 (Mus musculus) (UniProt Q64669)
Assay: Induction of NQO1 activity in mouse Hepa1c1c7 cells assessed as concentration required to double specific enzyme activity after 48 hrs
Format: cell-based

Chain of NAD(P)H dehydrogenase [quinone] 1 (Mus musculus) (Q64669 whole entry): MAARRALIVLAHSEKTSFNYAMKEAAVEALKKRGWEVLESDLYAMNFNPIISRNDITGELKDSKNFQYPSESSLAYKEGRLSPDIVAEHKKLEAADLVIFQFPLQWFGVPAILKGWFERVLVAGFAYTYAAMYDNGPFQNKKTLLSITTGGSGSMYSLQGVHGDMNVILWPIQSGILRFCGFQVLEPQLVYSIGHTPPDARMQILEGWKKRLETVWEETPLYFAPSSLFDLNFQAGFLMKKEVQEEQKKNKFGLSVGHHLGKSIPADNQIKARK

SMILES	CD
C#C[C@]12C=C(C#N)C(=O)C=C1[C@@]1(C)C=C(C#N)C(=O)C(C)(C)[C@@H]1CC2 (racemic)	1 nM
C#C[C@]12C=C(C#N)C(=O)C=C1[C@@]1(C)C=C(C#N)C(=O)[C@@](C)(CO)[C@@H]1CC2 (racemic)	2.2 nM
